Data on one substance can be found in US9889184B2 (priority 2008, dated 2018).

Where two headings read alike, the source gives them in different places.

One experiment relates to Fov hyphae. Kind of experiment: Detection of reactive oxygen species (DHR123 oxidation). The experiment is classed as cell-based, Fusarium oxysporum f. sp. vasinfectum. As to the method: Fov hyphae were grown as described herein and incubated with 5 μg/mL dihydrorhodamine 123 (Sigma-Aldrich) for 2 h followed by extensive washing with growth medium. […] Fluorescence was then measured on a fluorimeter with excitation and emission wavelengths of 488 nm and 538 nm respectively or visualized by fluorescence microscopy. The experiment was repeated either in the presence of ascorbic acid (10 mM) or 2,2,6,6-tetramethylpiperidine-N-oxyl (TEMPO, 3 mM).

For a further experiment, the system named is Fusarium graminearum. The experiment is classed as cell-based.
Experiment [1] relates to Fusarium oxysporum f. sp. vasinfectum (Fov) hyphae. Briefly: Permeabilisation of Fov hyphae by defensins, SYTOX green (Example 10). The experiment is classed as cell-based. Conditions: within 60 mins; followed over 2 h. How it is done: Fov hyphae were grown in half-strength PDB (10 mL in a 50 mL tube) from a starting concentration of 5×10^4 spores/mL for 18 h at 25° C. with constant shaking. Samples (1 mL) were then removed and NaD1 (final concentration 2 μM), NaD1R&A (final concentration 2 μM) or an equivalent volume of water was added before incubation for 2 h at RT with gentle agitation. SYTOX® green (Invitrogen-Molecular Probes, Eugene, Oreg.) was added to a final concentration of 0.5 μM and the hyphae were allowed to stand for 10 min. Hyphae (20 μL) were then transferred to microscope slides (SuperFrost (Registered) Plus, Menzel-Glaser) and covered with glass coverslips for visualization of SYTOX® green uptake using an Olympus BX51 fluorescence microscope. SYTOX® green fluorescence was detected using an MWIB filter (excitation wavelength 460-490 nm). Images were captured using a SPOT RT 3CCD digital camera (Diagnostic Instruments) and processed using Adobe Photoshop. SYTOX® green uptake was quantitated by measuring fluorescence of hyphae in microtitre trays using a fluorimeter (SpectraMax M2; Molecular Devices) with excitation and emission wavelengths of 488 nm and 538 nm, respectively.
The ability of defensins to permeabilise Fusarium oxysporum f. sp. vasinfectum (Fov) hyphae was assessed using a SYTOX green assay as described in the detailed description (NaD1 and membrane permeabilisation).

The test system of another experiment is Thielaviopsis basicola. Briefly: Growth inhibition by NaD1 (microtitre OD595). Type of experiment: cell-based. An excerpt: (§1) Antifungal activity against Fusarium oxysporum f. sp. vasinfectum (Fov, Australian isolate VCG01111 isolated from cotton; from Wayne O'Neill, Farming Systems Institute, DPI, Queensland, Australia), Thielaviopsis basicola (gift from David Nehl, NSW DPI, Narrabri, Australia), Verticillium dahliae (from Helen McFadden, CSIRO Plant Industry, Black Mountain, Australia), Leptosphaeria maculans (from Barbara Howlett, University of Melbourne, Victoria, Australia) and Aspergillus nidulans (from Michael Hynes, University of Melbourne) was assessed essentially as described in Broekaert et al, 1990. Spores were isolated from sporulating cultures growing in either half-strength potato dextrose broth (PDB) (Fov and T. basicola), Czapeck-Dox Broth (V. dahliae) (Difco Laboratories) or 10% (v/v) clarified V8 medium (L. maculans and A. nidulans) by filtration through sterile muslin. Spore concentrations were determined using a hemocytometer and adjusted to 5×10^4 spores/mL in the appropriate growth medium. Spore suspensions (80 μL) were added to the wells of sterile 96-well flat-bottomed microtitre plates along with 20 μL of filter-sterilized (0.22 μm syringe filter; Millipore) NaD1, or water to give final protein concentrations of 0-10 μM. The plates were shaken briefly and placed in the dark at 25° C. without shaking until the optical density at 595 nm of the water control reached approximately 0.2 (24-72 h depending on growth rate). Hyphal growth was estimated by measuring the optical density at 595 nm using a microtitre plate reader (SpectraMax Pro M2; Molecular Devices). Each test was performed in quadruplicate.

The subject of another experiment is Leptosphaeria maculans. Briefly: Growth inhibition by NaD1 (microtitre OD595). Type of experiment: cell-based.
Source text: as §1

Another experiment has as its system Aspergillus nidulans. Kind of experiment: Growth inhibition by NaD1 (microtitre OD595). Type of experiment: cell-based.
Source text: as §1

In another experiment the test system is Verticillium dahliae. Kind of experiment: Growth inhibition by NaD1 (microtitre OD595). The experiment is classed as cell-based.
Source text: as §1

As to “NaD1: plant defensin isolated from floral tissue of Nicotiana alata (SEQ ID NO:12) (RECKTESNTFPGICITKPPCRKACISEKFTDGHCSKILRRCLCTKPC; Nicotiana alata (NaD1))”, the “ROS production, DHR123 fluorescence” value in the experiment on Fov hyphae (NaD1 0.1, 2 and 10 μM or 10 μM NaD1R&A) is given as “concentration-dependent increase in fluorescence”. Moreover, in the experiment with Fov hyphae (ascorbic acid or TEMPO present), the “DHR123 oxidation by NaD1 in the presence of ROS scavengers” value is reported as “did not alter the level of fluorescence”. Besides, the “toxicity with Fusarium graminearum” value with Fusarium graminearum (0.5 μM NaD1 combined with 0.5 μM/mL NaCys2, FIG. 3B) is recorded as “significantly enhanced”; in the experiment on Fusarium graminearum (0.5 μM NaD1 in the absence of NaCys2, FIG. 3B) it was “very low”. In experiment [1], the “permeabilisation of Fov hyphae (SYTOX green)” value is on record as “efficiently permeabilise”. Moreover, the growth inhibited result with Thielaviopsis basicola (1 μM NaD1, T. basicola) is “approximately 65%”; in the experiment with Thielaviopsis basicola (5 μM NaD1, T. basicola), “more than 80%”; in the experiment on Leptosphaeria maculans (5 μM NaD1, L. maculans), “more than 80%”; in the experiment on Aspergillus nidulans (1 μM NaD1, A. nidulans) it was “approximately 65%”; with Aspergillus nidulans (5 μM NaD1, A. nidulans), “more than 80%”; in the experiment with Verticillium dahliae (1 μM NaD1, V. dahliae) it was “approximately 65%”. Further, in the experiment on Verticillium dahliae (5 μM NaD1, V. dahliae), the growth inhibited result is reported as “more than 80%”. Also, the IC50 in the experiment with Thielaviopsis basicola (Thielaviopsis basicola) was found to be 800 nM; in the experiment on Leptosphaeria maculans (Leptosphaeria maculans) it was 800 nM; with Aspergillus nidulans (Aspergillus nidulans), 800 nM; with Verticillium dahliae (Verticillium dahliae), 750 nM. Besides, the growth retarded in the experiment with Leptosphaeria maculans (1 μM NaD1, L. maculans) is reported as 50%.

A word on the IC50: it is the concentration that inhibits the measured activity by half. Low values mean greater potency, high ones weaker potency.
